The values below come from publication PMC4863226 (Molecular imaging, 2015).

Where a SMILES comes first, the peptide text is derived from it. Bridges are numbered along the chain shown (N, C = ends). The star is where a group is joined. DOTA = O=C(O)CN1CCN(CC(=O)O)CCN(CC(=O)*)CCN(CC(=O)O)CC1; NOTA = O=C(O)CN1CCN(CC(=O)O)CCN(CC(=O)*)CC1; X1 = O=[N+]([O-])c1cc([N+](=O)[O-])c(*)cc1F; PEG4 = NCCOCCOCCOCCOCCC(=O)O

One data set is described as follows: in vivo. The following applies: female, athymic Nu/Nu, mouse, 3.7 MBq, total radioactivity.
Data set [1] concerns HCT-116 tumor bearing mice. In words: Biodistribution. The following applies: for Bone uptake / Brain uptake / Fat uptake / Heart uptake / Kidney uptake / L lg int (lower large intestine) uptake / Liver uptake / Lung uptake / Muscle uptake / Sm int (small intestine) uptake / Spleen uptake / Stomach uptake / U lg int (upper large intestine) uptake: HCT-116 tumor bearing mice; for Bone uptake / Brain uptake / Fat uptake / Heart uptake / Kidney uptake / L lg int (lower large intestine) uptake / Liver uptake / Lung uptake / Muscle uptake / Sm int (small intestine) uptake / Spleen uptake / Stomach uptake / U lg int (upper large intestine) uptake / Tumor uptake: gamma counter; for Bone uptake / Brain uptake / Fat uptake / Heart uptake / Kidney uptake / L lg int (lower large intestine) uptake / Liver uptake / Lung uptake / Muscle uptake / Sm int (small intestine) uptake / Spleen uptake / Stomach uptake / U lg int (upper large intestine) uptake / Tumor uptake / Tumor-to-blood ratio: mean ± SD; for Tumor uptake: HCT-116 tumor xenograft; for Tumor uptake / Tumor-to-blood ratio: mice; for Tumor-to-blood ratio: HCT-116 tumor xenografts.

Setting [2] is: Sm int (small intestine) uptake.

`CC[C@H](C)[C@@H]1NC(=O)[C@H](CC(=O)O)NC(=O)[C@@H](NC(=O)[C@H](CCC(=O)O)NC(=O)[C@H](CC(N)=O)NC(=O)CNC(=O)CNC(=O)CCOCCOCCOCCOCCNC(=O)CN2CCN(CC(=O)O)CCN(CC(=O)O)CCN(CC(=O)O)CC2)CSSC[C@@H](C(=O)N[C@@H](Cc2ccccc2)C(=O)N[C@@H](CCC(=O)O)C(=O)N[C@@H](CCCNC(=N)N)C(=O)N[C@@H](CCCCNc2cc(F)c([N+](=O)[O-])cc2[N+](=O)[O-])C(N)=O)NC(=O)[C@H](CCC(=O)O)NC(=O)[C@H](Cc2c[nH]c3ccccc23)NC(=O)[C@H](CCC(=O)O)NC(=O)[C@H](Cc2c[nH]c3ccccc23)NC(=O)[C@H](CCSC)NC(=O)[C@H](CCCNC(=N)N)NC(=O)[C@H](C)NC1=O` [^55Co-DO3A-L19K-FDNB] ({DOTA-PEG4}-GGNECDIARMWEWECFERK(X1)-NH2; disulfide 5-15): the tissue uptake – broadly, the share of the injected amount in each gram of the tissue – at 24 h in “in vivo” (Bone uptake) was found to be 0.3 ± 0.04 %ID/g; in “in vivo” (Fat uptake), 0.4 ± 0.1 %ID/g; in “in vivo” (Liver uptake) it was 1.1 ± 0.2 %ID/g; in the data set “in vivo” (Lung uptake) it was 0.8 ± 0.1 %ID/g; in “in vivo” (setting [2]) it was 0.31 ± 0.04 %ID/g; in the data set “in vivo” (Tumor uptake), 1.1 ± 0.2 %ID/g. The tissue uptake at 48 h was 0.26 ± 0.05 %ID/g in the data set “in vivo” (Bone uptake); 0.3 ± 0.03 %ID/g in the data set “in vivo” (Fat uptake); 0.7 ± 0.1 %ID/g in “in vivo” (Liver uptake); 0.56 ± 0.03 %ID/g in the data set “in vivo” (Lung uptake); 0.19 ± 0.03 %ID/g in the data set “in vivo” (setting [2]); 0.71 ± 0.03 %ID/g in “in vivo” (Tumor uptake).

As for `CC[C@H](C)[C@@H]1NC(=O)[C@H](CC(=O)O)NC(=O)[C@@H](NC(=O)[C@H](CCC(=O)O)NC(=O)[C@H](CC(N)=O)NC(=O)CNC(=O)CNC(=O)CCOCCOCCOCCOCCNC(=O)CN2CCN(CC(=O)O)CCN(CC(=O)O)CC2)CSSC[C@@H](C(=O)N[C@@H](Cc2ccccc2)C(=O)N[C@@H](CCC(=O)O)C(=O)N[C@@H](CCCNC(=N)N)C(=O)N[C@@H](CCCCNc2cc(F)c([N+](=O)[O-])cc2[N+](=O)[O-])C(N)=O)NC(=O)[C@H](CCC(=O)O)NC(=O)[C@H](Cc2c[nH]c3ccccc23)NC(=O)[C@H](CCC(=O)O)NC(=O)[C@H](Cc2c[nH]c3ccccc23)NC(=O)[C@H](CCSC)NC(=O)[C@H](CCCNC(=N)N)NC(=O)[C@H](C)NC1=O` [^55Co-NO2A-L19K-FDNB] ({NOTA-PEG4}-GGNECDIARMWEWECFERK(X1)-NH2; disulfide 5-15), the tissue uptake at 24 h in “in vivo” (Bone uptake) amounted to 0.28 ± 0.04 %ID/g; in “in vivo” (Fat uptake), 0.8 ± 0.4 %ID/g; in the data set “in vivo” (Liver uptake) it was 1 ± 0.1 %ID/g; in the data set “in vivo” (Lung uptake), 0.9 ± 0.1 %ID/g; in “in vivo” (setting [2]) it was 0.26 ± 0.01 %ID/g; in the data set “in vivo” (Tumor uptake), 0.9 ± 0.1 %ID/g. For the same compound, the tissue uptake at 48 h in “in vivo” (Bone uptake) worked out at 0.14 ± 0.02 %ID/g; in “in vivo” (Fat uptake), 0.3 ± 0.1 %ID/g; in “in vivo” (Liver uptake), 0.44 ± 0.03 %ID/g; in “in vivo” (Lung uptake), 0.46 ± 0.06 %ID/g; in “in vivo” (setting [2]), 0.14 ± 0.04 %ID/g; in the data set “in vivo” (Tumor uptake), 0.49 ± 0.09 %ID/g.

For `[Cl][55Co][Cl]` [^55CoCl2], in data set [1] (2 hr p.i.), the Bone uptake is on record as 1.3 ± 0.2 %ID/g, the Brain uptake turned out to be 0.31 ± 0.02 %ID/g, the Fat uptake was 1.5 ± 0.9 %ID/g and the Heart uptake worked out at 4.8 ± 0.4 %ID/g. For the same compound, in data set [1] (2 hr p.i.), the Kidney uptake worked out at 10.5 ± 1.4 %ID/g, the “L lg int (lower large intestine) uptake” value came out at 1.9 ± 1.0 %ID/g, the Liver uptake is reported as 15.7 ± 0.4 %ID/g and the Lung uptake was 4.0 ± 0.3 %ID/g. Moreover, in data set [1] (2 hr p.i.), the Muscle uptake turned out to be 0.6 ± 0.1 %ID/g, the “Sm int (small intestine) uptake” value is given as 3.6 ± 0.6 %ID/g, the Spleen uptake is on record as 1.9 ± 0.4 %ID/g and the Stomach uptake is 1.1 ± 0.1 %ID/g. Also, in data set [1] (2 hr p.i.), the “U lg int (upper large intestine) uptake” value is reported as 4.3 ± 0.8 %ID/g and the Tumor uptake was 2.8 ± 0.6 %ID/g. The Tumor-to-blood ratio in data set [1] (2 hrs p.i.) stood at 0.6 ± 0.1. In data set [1] (24 hr p.i., n=3), the Bone uptake came out at 0.8 ± 0.1 %ID/g, the Brain uptake is 0.17 ± 0.03 %ID/g, the Fat uptake amounted to 0.7 ± 0.4 %ID/g and the Heart uptake was determined as 2.8 ± 0.7 %ID/g. Further, in data set [1] (24 hr p.i., n=3), the Kidney uptake was 4.4 ± 0.4 %ID/g, the “L lg int (lower large intestine) uptake” value worked out at 2.2 ± 0.3 %ID/g, the Liver uptake turned out to be 6.2 ± 0.8 %ID/g and the Lung uptake is given as 1.9 ± 0.1 %ID/g. In addition, in data set [1] (24 hr p.i., n=3), the Muscle uptake was 0.37 ± 0.08 %ID/g, the “Sm int (small intestine) uptake” value amounted to 1.1 ± 0.2 %ID/g, the Spleen uptake is listed as 0.82 ± 0.05 %ID/g and the Stomach uptake came to 1.0 ± 0.2 %ID/g. In data set [1] (24 hr p.i., n=3), the “U lg int (upper large intestine) uptake” value worked out at 1.5 ± 0.1 %ID/g and the Tumor uptake is given as 1.6 ± 0.2 %ID/g. In data set [1] (48 hr p.i., n=3), this compound returned a Bone uptake of 0.5 ± 0.1 %ID/g, a Brain uptake of 0.11 ± 0.01 %ID/g, a Fat uptake of 0.23 ± 0.05 %ID/g and a Heart uptake of 1.4 ± 0.2 %ID/g. Moreover, in data set [1] (48 hr p.i., n=3), the Kidney uptake was 1.9 ± 0.2 %ID/g, the “L lg int (lower large intestine) uptake” value came to 1.2 ± 0.2 %ID/g, the Liver uptake is on record as 2.7 ± 0.7 %ID/g and the Lung uptake was found to be 0.98 ± 0.09 %ID/g. In addition, in data set [1] (48 hr p.i., n=3), the Muscle uptake was found to be 0.17 ± 0.03 %ID/g, the “Sm int (small intestine) uptake” value is 0.50 ± 0.04 %ID/g, the Spleen uptake is given as 0.46 ± 0.04 %ID/g and the Stomach uptake is on record as 0.5 ± 0.1 %ID/g. Also, in data set [1] (48 hr p.i., n=3), the “U lg int (upper large intestine) uptake” value was determined as 0.7 ± 0.1 %ID/g and the Tumor uptake is on record as 0.86 ± 0.08 %ID/g. In addition, the Tumor-to-blood ratio in data set [1] (48 hrs p.i., P=0.006 vs 2 hrs) was 1.9 ± 0.4. Also, the “Consecutive decrease in liver and kidney uptake” value in data set [1] (at 24 and 48 hrs p.i. after high uptake at 2 hrs p.i.) was “about 2 fold”. Besides, the “Increase of tumor-to-blood ratio” value in data set [1] (from 2 to 48 hrs p.i.) is 3 fold.
